Data set [1] has as its system HUVEC. The data set can be described thus: Inhibition of LPS-induced hyperpermeability in HUVEC cells for 6 hrs pretreated with LPS for 4 hrs by evans blue dye flux based immunofluorescence analysis. It is filed as functional, cell-based. The settings on record: Homo sapiens.
Data set [2] relates to HUVEC. The data set can be described thus: Inhibition of LPS-induced hyperpermeability in HUVEC cells assessed as permeability at 20 uM for 6 hrs pretreated with LPS for 4 hrs by evans blue dye flux based immunofluorescence analysis (reference value: 100%). It is filed as functional, Homo sapiens. Set-up: scale not given: the % may be the effect or the level left.
The subject of data set [3] is HUVEC. The data set is described as follows: Cytotoxicity against HUVEC cells assessed as permeability at 2.5 to 20 uM after 6 hrs by evans blue dye flux based immunofluorescence analysis. It is filed as cell-based. The settings on record: human.
For data set [4], the system named is HUVEC. The data set is described as follows: Inhibition of LPS-induced neutrophil adhesion in HUVEC cells for 6 hrs pretreated with LPS for 4 hrs by fluorescence microplate reader assay. It is filed as functional, cell-based. The settings on record: Homo sapiens.
Data set [5] concerns HUVEC. The data set is described as follows: Inhibition of LPS-induced neutrophil adhesion in HUVEC cells assessed as neutrophil adhesion to cell monolayer at 20 uM for 6 hrs pretreated with LPS for 4 hrs by fluorescence microplate reader assay (reference value: 86%). It is filed as functional, Homo sapiens. Further details: scale not given: the % may be the effect or the level left.

Data set [6] has as its system HUVEC. The data set can be described thus: Cytotoxicity against HUVEC cells assessed as neutrophil adhesion at 2.5 to 20 uM after 6 hrs by fluorescence microplate reader assay. It is filed as cell-based. Conditions: human.
Data set [7] has as its system HUVEC. The data set is described as follows: Inhibition of LPS-induced neutrophil migration in HUVEC cells for 6 hrs pretreated with LPS for 4 hrs. Type of data set: functional, cell-based. The settings on record: Homo sapiens.
Data set [8] deals with HUVEC. The data set is described as follows: Inhibition of LPS-induced neutrophil migration in HUVEC cells assessed as migration index at 20 uM for 6 hrs pretreated with LPS for 4 hrs (reference value: 155). Type of data set: functional, Homo sapiens.
The subject of data set [9] is HUVEC. The data set is described as follows: Cytotoxicity against HUVEC cells assessed as neutrophil migration at 2.5 to 20 uM after 6 hrs. Type of data set: cell-based. Conditions: human.
Data set [10] can be described thus: Acid hydrolysis of compound assessed as retention time at 2 mg after 6 hrs by RP-HPLC method. Type of data set: physicochemical.

Take `O=Cc1ccc(O[C@@H]2O[C@H](CO)[C@@H](OC(=O)/C=C/c3ccc(O)c(O)c3)[C@H](O)[C@H]2O)cc1`: the inhibition result in the data set with HUVEC [1], with HUVEC [4] and in the data set on HUVEC [7] was “Dose-dependent effect” each time. Moreover, the Activity with HUVEC [2] is given as 58%; in the data set with HUVEC [3] it was “Non-toxic”; in the data set on HUVEC [5], 33%; in the data set on HUVEC [6] it was “Non-toxic”; with HUVEC [9], “Non-toxic”. Further, the Activity_index with HUVEC [8] is 74.

Regarding `O=Cc1ccc(O[C@@H]2O[C@H](COC(=O)/C=C/c3ccc(O)c(O)c3)[C@@H](O)[C@H](O)[C@H]2O)cc1`, in data set [10], the Retention_time is reported as 28.1 min. For the same molecule, the inhibition entry in the data set on HUVEC [1], in the data set with HUVEC [4] and in the data set on HUVEC [7] was “Dose-dependent effect” each time. Besides, the Activity with HUVEC [2] is recorded as 73%; in the data set with HUVEC [3], “Non-toxic”; in the data set on HUVEC [5], 30%; in the data set on HUVEC [6] it was “Non-toxic”; with HUVEC [9], “Non-toxic”. For the same molecule, the Activity_index in the data set with HUVEC [8] was determined as 75.

On to `O=C(/C=C/c1ccc(O)c(O)c1)OCc1ccc(O[C@@H]2O[C@H](CO)[C@@H](O)[C@H](O)[C@H]2O)cc1`, for which the Activity in the data set on HUVEC [5] came to 73%. For the same molecule, the Activity_index in the data set on HUVEC [8] came to 142.

As to `O=c1cc(-c2ccc(O)c(O)c2)oc2c([C@@H]3O[C@H](CO)[C@@H](O)[C@H](O)[C@H]3O)c(O)cc(O)c12` [ORIENTIN], the Activity with HUVEC [2] worked out at 71%; in the data set on HUVEC [5] it was 41%. In addition, in the data set with HUVEC [7], the inhibition entry was “Dose-dependent effect”. Further, the Activity_index in the data set on HUVEC [8] is 73.

The values are drawn from ChEMBL document CHEMBL3627715, “Caffeoyl glucosides from Nandina domestica inhibit LPS-induced endothelial inflammatory responses” (Bioorg Med Chem Lett, 2015).
